This is an account of results in patent publication US5677336A, “Non-steroid androgen receptor antagonist compounds and methods” (Ligand Pharmaceuticals Incorporated, priority 1993, dated 1997).

Read-outs that look alike come from different tables or passages of the source. Some results are limits rather than exact numbers.

One test addresses T1, androgen receptor (Homo sapiens, UniProt P10275).
T1 construct: expressed in transfected cells; host or cells: CV-1 (monkey kidney fibroblast) cells, plasmid pRShAR, with reporter plasmid MTV-LUC
T1 sequence (P10275 1-920): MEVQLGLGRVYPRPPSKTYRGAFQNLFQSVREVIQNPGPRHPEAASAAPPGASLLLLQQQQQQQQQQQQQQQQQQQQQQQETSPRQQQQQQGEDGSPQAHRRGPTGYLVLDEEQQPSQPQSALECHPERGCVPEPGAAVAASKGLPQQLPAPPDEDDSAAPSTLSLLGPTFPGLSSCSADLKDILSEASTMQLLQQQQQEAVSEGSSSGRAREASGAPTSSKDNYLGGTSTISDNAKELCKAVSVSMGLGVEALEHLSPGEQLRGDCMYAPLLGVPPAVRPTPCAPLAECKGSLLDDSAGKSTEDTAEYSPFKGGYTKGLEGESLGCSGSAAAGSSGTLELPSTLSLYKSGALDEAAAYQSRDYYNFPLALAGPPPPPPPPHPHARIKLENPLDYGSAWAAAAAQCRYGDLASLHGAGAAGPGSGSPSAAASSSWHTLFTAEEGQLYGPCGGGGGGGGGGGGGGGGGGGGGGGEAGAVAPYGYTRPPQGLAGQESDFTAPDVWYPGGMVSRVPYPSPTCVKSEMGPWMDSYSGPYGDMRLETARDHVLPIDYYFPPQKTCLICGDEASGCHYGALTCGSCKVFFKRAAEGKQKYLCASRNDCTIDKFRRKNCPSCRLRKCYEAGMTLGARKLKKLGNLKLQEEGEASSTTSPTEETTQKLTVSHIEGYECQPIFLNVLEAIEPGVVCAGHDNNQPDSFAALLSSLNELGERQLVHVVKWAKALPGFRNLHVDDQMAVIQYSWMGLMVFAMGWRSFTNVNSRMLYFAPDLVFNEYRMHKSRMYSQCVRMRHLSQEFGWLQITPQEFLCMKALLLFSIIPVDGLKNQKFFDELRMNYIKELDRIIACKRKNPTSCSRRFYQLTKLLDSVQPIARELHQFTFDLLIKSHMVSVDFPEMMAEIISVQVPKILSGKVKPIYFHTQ
The experiment in a line: Co-transfection androgen antagonist assay (CV-1 cells, pRShAR, MTV-LUC reporter; AR-wt). Format: cell-based. The following applies: for IC50: read-out: Potency (IC50, concentration required to reduce the maximal response by 50%). From the text:
The co-transfection assay provides a method for identifying functional ligands (either agonists which mimic, or antagonists which inhibit, the effect of hormones), and quantifying their activity for ligand-responsive receptor proteins. In this regard, the co-transfection assay mimics an in vivo system in the laboratory. Importantly, activity in the co-transfection assay correlates very well with known in vivo activity, such that the co-transfection assay functions as a quantitative predicator of a tested compounds in vivo pharmacology. See, e.g., T. Berger et al. 41 J. Steroid Biochem. Molec.
(§1) In the co-transfection assay, a cloned gene for an intracellular receptor (e.g., androgen receptor) is introduced by transfection (a procedure to induce cells to take up foreign genes) into a background cell substantially devoid of endogenous intracellular receptors. This introduced gene directs the recipient cells to make the intracellular receptor protein. A second gene is also introduced (co-transfected) into the same cells in conjunction with the intracellular receptor gene. This second gene functions as a reporter for the transcription-modulating activity of the target intracellular receptor. Thus, the reporter acts as a surrogate for the products normally expressed by a gene under control of the target receptor and its natural hormone. A preferred reporter gene is one which expresses the firefly enzyme luciferase.
(§2) The co-transfection assay can detect small molecule agonists or antagonists of target intracellular receptors. Exposing the cells to an agonist ligand increases reporter activity in the transfected cells. This activity can be conveniently measured, e.g., by increasing luciferase production, which reflects ligand-dependent, intracellular receptor-mediated increases in reporter transcription. To detect antagonists, the co-transfection assay is carried out in the presence of a constant concentration of an agonist (e.g., for androgen receptor, dihydrotestosterone) known to induce a defined reporter signal. Increasing concentrations of a test antagonist will decrease the reporter signal (e.g., luciferase production). The co-transfection assay is therefore useful to detect both agonists and antagonists of specific intracellular receptors. It determines not only whether a compound interacts with a particular intracellular receptor, but whether this interaction mimics (agonizes) or blocks (antagonizes) the effects of the natural regulatory molecules on target gene expression, as well as the specificity and strength of this interaction.
Co-transfected cells are exposed to a medium to which is added the potential ligand (compound) that is being evaluated. If the candidate compound diffuses into the cell, binds to the receptor, and the resulting receptor complex functions as an agonist, it will subsequently bind to the co-transfected reporter gene and initiate transcription. Typically, the reporter gene is one that expresses luciferase, which is capable of catalyzing a light-emitting reaction with its substrate luciferin. Thus, after cell lysis and the introduction of luciferin, the amount of light produced relative to the concentration of candidate compound used in the assay provides a measure of the potency and efficacy of the compound tested. Antagonist activity is evaluated by adding the candidate ligand and a known agonist to the co-transfected cells. […]

For test [1], the system named is progesterone receptor (PR-TI). The experiment in a line: Antagonist activity on progesterone receptor, CV-1 cells cotransfected with pRShPR-B altered at Tau-1 (PR-TI). It counts as cell-based, human. Conditions: Table 2, CV-1 cells PR-TI; for Efficacy, PR-TI (% maximal response): comparable to that found with RU-486; for IC50: read-out: Potency, PR-TI (IC50).
Excerpt: as §1, §2
Co-transfected cells are exposed to a medium to which is added the potential ligand (compound) that is being evaluated. If the candidate compound diffuses into the cell, binds to the receptor, and the resulting receptor complex functions as an agonist, it will subsequently bind to the co-transfected reporter gene and initiate transcription. Typically, the reporter gene is one that expresses luciferase, which is capable of catalyzing a light-emitting reaction with its substrate luciferin. Thus, after cell lysis and the introduction of luciferin, the amount of light produced relative to the concentration of candidate compound used in the assay provides a measure of the potency and efficacy of the compound tested. Antagonist activity is evaluated by adding the candidate ligand and a known agonist to the co-transfected cells.
The specific activity of Compounds A-J was compared relative to their antagonist activity on the human progesterone receptor (PR) utilizing CV-1 cells cotransfected with plasmid pRShPR-B, as altered at the Tau-1 location (e.g., PR-TI)[specifically, hPR-B was excised from the vector pGEM3Z (69 Cell 703 (1992)); the Tau-1 fragment of the gluccocorticoid receptor was inserted into hPR-B at the unique HincII site in the N-terminal region; a Bst EII to BST bI fragment spanning the Tau-1 insertion was then used to replace the corresponding region in pRShPR-B]. […] Potency or IC50 is as reported for AR-wt transfected CV-1 cells.

The conditions of test [2]: Wall et al., J. Nat. Prod. 1989; cited from earlier work.
Setting [3] is: CV-1, Table 1, androgen antagonists, relative to 2-Hydroxy-flutamide, read-out: Efficacy (% maximal response relative to 2-Hydroxy-flutamide).
The mark [4] stands for this setting: Table 2, CV-1 cells AR-wt, read-out: Efficacy, AR-wt.

For the compound `O=[N+]([O-])c1ccc(C[C@@H]2CCCC[C@H]2O)cc1` (relative stereo) [I, trans-2-(4'-Nitrophenyl)methylcyclohexan-1-ol], the Emax at androgen receptor (setting [3]) and at androgen receptor (setting [4]) was 85% each time. For the same compound, the IC50 at androgen receptor (Table 1, androgen antagonists) worked out at 290 nM; in test [1], 360 nM. Also, the “Efficacy, PR-TI (% maximal response)” value in test [1] amounted to 99%.

As for `COc1cc(CC2C(C)(C)CC(C)=CC23CC3)c(OC(C)=O)cc1Br` (stereo not shown) [H, 8-(2'-Acetoxy-4'-bromo-5 '-methoxyphenyl)methyl-5,7,7-trimethylspiro[2.51]oct-4-ene], the Emax on androgen receptor (setting [3]) and on androgen receptor (setting [4]) was 89% each time. Moreover, the IC50 at androgen receptor (Table 1, androgen antagonists) was found to be 250 nM; in test [1], 160 nM. Further, in test [1], the “Efficacy, PR-TI (% maximal response)” value was 26%.

`O=C1CCCCC1Cc1ccc([N+](=O)[O-])cc1` (stereo not shown) [G, 2-(4'-Nitrophenyl)methylcyclohexan-1-one]: the Emax on androgen receptor (setting [3]) and on androgen receptor (setting [4]) was 79% each time. The IC50 came to 250 nM at androgen receptor (Table 1, androgen antagonists) and 920 nM in test [1]. Moreover, the “Efficacy, PR-TI (% maximal response)” value in test [1] is listed as 98%.

`CC1(C)[C@@H](Br)CC[C@@]2(C)Oc3cc(Br)c(O)cc3C[C@@H]12` [cymobarbatol]: the antimutagenic activity result in test [2] was “highly active antimutagens”.

Regarding `C=C1C=CC(Br)C(C)(C)[C@H]1Cc1cc(OC)c(Br)cc1OC(C)=O` (stereo partly drawn) [E, (4S,6S)-1-Methylidene-4-bromo-5-(2'-acetoxy-4'-bromo-5'-methyoxyphenyl)methyl-5,5-dimethylcyclohex-2-ene], the Emax at androgen receptor (setting [3]) and at androgen receptor (setting [4]) was 60% each time. The IC50 on androgen receptor (Table 1, androgen antagonists) is 230 nM; in test [1], above 10000 nM. Also, the “Efficacy, PR-TI (% maximal response)” value in test [1] came to 20%.

Take 4-isocymobarbatol: the antimutagenic activity result in test [2] is on record as “highly active antimutagens”.
